Reference: patent US6906035B2, “Antimicrobial cationic peptides” (priority 1995, dated 2005)
Values joined by “and” are separate entries in the source; they are usually repeats but may differ in a detail not shown here. Equal entries are not always repeated. Where two headings read alike, the source gives them in different places. Ends that are not written are not given here.

Tests used:
[1] = α helical content by CD spectra; assay type: physicochemical
Description: α Helical Content of Cationic Peptides by CD Spectra
The α helical content of the peptides were measured in buffer, liposomes and 20% Hexafluoroisopropanol (HFPIP). The liposomes constituted of POPC alone or POPC and POPC and 30% POPG (Table 7).

[2] = test system: LPS; assay: Dansyl polymyxin displacement assay; assay type: binding; details: Dansyl polymyxin displacement from LPS
Description: In addition, the peptides of SEQ ID NO: 5-8 also bound effectively to LPS with high affinity based on Dansyl polymyxin displacement assays (Table 5).

[3] = test system: X. maltophila; assay: organism not typed; details: agent alone
Description: (§1) FICs are performed by checkerboard titrations of peptides in one dimension of a microtiter plate, and of antibiotics in the other dimension, for example. The FIC is calculated by looking at the impact of one antibiotic on the MIC of the other and vice versa. […] Preferably, an FIC of less than 0.5 is obtained for synergism. As used herein, FIC can be determined as follows: [formula]
(§2) Synergism is identified as an FIC of about ≦0.5.

[4] = test system: Red Blood Cells; assay: Red blood cell lysis; assay type: cell-based; details: concentration lysing Red Blood Cells
[5] = test system: Candida albicans; assay: MIC, broth dilution in LB-S; assay type: cell-based
Description: as §1
(§3) Briefly, cells were grown overnight at 37° C. in LB-S (Luria broth without any salt supplement) and diluted one in 10,000 in the same medium to give concentrations of about 10^4 to 10^5 CFU/ml. The broth dilutions were set up in a 96 well microtiter plate by putting 200 μl of LB-S containing the initial concentration of antibiotic or compound in column 1 and 100 μl of the same medium in columns 2-12. The compounds were diluted by taking 100 μl of broth from column 1 and mixing it with column 2, resulting in a one in two dilution. This was continued to column 10. Finally, 10 μl of bacteria were pipetted into columns 1-11, and the plates incubated overnight at 37° C. The next day the plates were scored for growth in the wells, and the MIC determined.

[6] = test system: P. aeruginosa; assay: microbe, parasite or virus in culture; details: agent alone
Description: as §1, §2

[7] = test system: E. cloacae; details: agent alone
Description: as §1, §2

[8] = test system: A. calcoaceticus; details: agent alone
Description: as §1, §2

[9] = test system: E. coli ML 35; assay: Inner membrane permeabilization (ONPG hydrolysis by β-galactosidase); assay type: cell-based; details: E. coli ML 35, ONPG
Description: Inner membrane permeability was determined by measurement in E. coli ML 35 of β-galactosidase activity using ONPG as a substrate. Normally ONPG cannot pass across the cytoplasmic membrane to permit hydrolysis by the cytoplasmic enzyme β-galactosidase. However, cationic peptides, by permeabilizing the inner membrane, unmasks this enzyme leading to color development as ONP is released. […] Addition of citrate increased the lag time before the peptides were able to permeabilize the membranes. When the experiments were executed in cation adjusted media (CAMHB), the lag time was increased up to 30 minutes.

[10] = test system: K. pneumoniae; assay: MIC, broth dilution in LB-S; assay type: cell-based; details: additional MICs
Description: (§4) The biological activity of the peptides can be determined by standard methods known to those of skill in the art, such as “minimal inhibitory concentration (MIC)” assay described in the present examples, whereby the lowest concentration at which no change in OD is observed for a given period of time is recorded as MIC. Alternatively, “fractional inhibitory concentration (FIC)” is also useful for determination of synergy between the peptides of the invention, or the peptides in combination with known antibiotics. FICs are performed by checkerboard titrations of peptides in one dimension of a microtiter plate, and of antibiotics in the other dimension, for example. The FIC is calculated by looking at the impact of one antibiotic on the MIC of the other and vice versa. […] Preferably, an FIC of less than 0.5 is obtained for synergism. As used herein, FIC can be determined as follows: [formula]
as §3

[11] = test system: E. cloacae; assay: MIC, broth dilution in LB-S; assay type: cell-based; details: additional MICs
Description: as §4, §3

[12] = test system: E. faecalis; assay: MIC, broth dilution in LB-S; assay type: cell-based; details: Table 1b, separate set of experiments
Description: as §4, §3

[13] = test system: S. aureus; assay: MIC, broth dilution in LB-S; assay type: cell-based
Description: as §4, §3

[14] = test system: A. calcoaceticus; assay: MIC, broth dilution in LB-S; assay type: cell-based; details: additional MICs
Description: as §4, §3

[15] = test system: E. coli; assay: MIC, broth dilution in LB-S; assay type: cell-based
Description: as §4, §3

[16] = test system: X maltophilia; assay: MIC, broth dilution in LB-S; assay type: cell-based; details: additional MICs
Description: as §4, §3

[17] = test system: P. aeruginosa
Description: as §1, §3

[18] = test system: S. epidermis; details: S. epidermis
Description: as §1, §3

Sequence: KWKSFIKKLTSAAKKVVTTAKPLISS [MBI 26]
- % α helicity ([1]; 20% HFIP): 70%
- % α helicity ([1]; Buffer): 0%
- % α helicity ([1]; POPC Liposomes): 0%
- % α helicity ([1]; POPC/POPG Liposomes (30% POPG)): 8%
- 1max [2]: 38%
- MIC ([3]; X. maltophila isolate 34, strain ATCC 13637): 64 mg/L
- MIC ([3]; X. maltophila isolate 35, strain 6): 64 mg/L and 128 mg/L
- MIC ([3]; X. maltophila isolate 40, strain R1302-1): 128 mg/L and 64 mg/L
- MIC ([3]; X. maltophila isolate 41, strain R4230): 64 mg/L
- RBC Lysis [4]: >55 µg/mL
- MIC ([5]; Candida albicans (CAN105), Table 1b, separate set of experiments): ≧64
- MIC ([5]; Candida alibicans (CAN105), Table 1a): ≧64
- MIC ([6]; P. aeruginosa isolate 23, strain ATCC 27853): 64 mg/L and 128 mg/L
- MIC ([6]; P. aeruginosa isolate 24, strain 34): 64 mg/L and 128 mg/L
- MIC ([6]; P. aeruginosa isolate 25, strain 923-1): 64 mg/L and 128 mg/L
- MIC ([6]; P. aeruginosa isolate 26, strain 3101): 64 mg/L and 128 mg/L
- MIC ([7]; E. cloacae isolate 14, strain 938-2): 64 mg/L
- MIC ([7]; E. cloacae isolate 15, strain B5546): 64 mg/L and 32 mg/L
- MIC ([7]; E. cloacae isolate 16, strain R4148): 64 mg/L and 32 mg/L
- MIC ([7]; E. cloacae isolate 17, strain R4148-2): 64 mg/L and 32 mg/L
- MIC ([7]; E. cloacae isolate 18, strain 3077): 64 mg/L
- MIC ([7]; E. cloacae isolate 19, strain 3356): 128 mg/L and 64 mg/L
- MIC ([8]; A. calcoaceticus isolate 1, strain ATCC 23055): 128 mg/L and 64 mg/L
- MIC ([8]; A. calcoaceticus isolate 2, strain 23): 32 mg/L and 64 mg/L
- MIC ([8]; A. calcoaceticus isolate 3, strain 27): 64 mg/L and 32 mg/L
- MIC ([8]; A. calcoaceticus isolate 4, strain 28): 16 mg/L and 32 mg/L
- MIC ([8]; A. calcoaceticus isolate 5, strain 8220): 64 mg/L and 32 mg/L
- MIC ([8]; A. calcoaceticus isolate 6, strain 8221): 64 mg/L
- MIC ([8]; A. calcoaceticus isolate 7, strain 8222): 64 mg/L
- MIC ([8]; A. calcoaceticus isolate 8, strain 8223): 64 mg/L and 32 mg/L
- MIC ([8]; A. calcoaceticus isolate 9, strain 8224): 64 mg/L
- MIC ([8]; A. calcoaceticus isolate 10, strain 8225): 64 mg/L
- MIC ([8]; A. calcoaceticus isolate 11, strain 8226): 64 mg/L
- Lag Time [9]: 210 s
- Rate of Hydrolysis [9]: 0.081 ΔAU min^−1
- MIC [10]: 8 mg/L
- MIC [11]: 2 mg/L
- MIC [12]: ≧64
- MIC ([13]; S. aureus (K 147), Table 1a): ≧64
- MIC ([13]; S. aureus (K147), Table 1b, separate set of experiments): ≧64
- MIC ([13]; S. aureus (SAP0017), Table 1a): ≧64
- MIC ([13]; S. aureus (SAP0017), Table 1b, separate set of experiments): ≧64
- MIC [14]: 2 mg/L
- MIC ([15]; E. coli 0111:B4, additional MICs): 2 mg/L
- MIC ([15]; E. coli (UB1005), Table 1a): 3 mg/L
- MIC ([15]; E. coli (UB1005), Table 1b, separate set of experiments): 4 mg/L
- MIC E. coli (UB 1005) ([15]; E. coli (UB 1005), Table 6): 1.1 mg/L
- MIC ([15]; E. coli. Bort, additional MICs): 2 mg/L
- MIC [16]: 2 mg/L
- MIC ([17]; P. aeruginasa (H 103), additional MICs): 4 mg/L
- MIC ([17]; P. aeruginosa (H187), Table 1a): 11 mg/L
- MIC ([17]; P. aeruginosa (H187), Table 1b, separate set of experiments): 32 mg/L
- MIC P. aeruginosa (H187) ([17]; P. aeruginosa (H187), Table 6): 4.5 mg/L
- MIC ([18]; Table 1a): ≧64
- MIC ([18]; Table 1b, separate set of experiments): 32 mg/L
